Test results reported in ChEMBL document CHEMBL4706583, “2-Anilinoquinoline based arylamides as broad spectrum anticancer agents with B-RAF/C-RAF kinase inhibitory effects: Design, synthesis, in vitro cell-based and oncogenic kinase assessments” (Eur J Med Chem, 2020).

Key:
[1] = biological target: Serine/threonine-protein kinase B-raf (Homo sapiens, UniProt P15056, V600E); experiment: Inhibition of human BRAF V600E mutant using MEK1 (K97R) as substrate in presence of [gamma-33P]ATP by scintillation counting method
HCT-116 [2] = experiment: Induction of apoptosis in human HCT-116 cells assessed as viable cells at 1.25 uM measured after 48 hrs by Annexin-V Alexa Fluor488/propidium iodide staining based flow cytometry (reference value: 82.3%); format: functional; conditions: read-out: Activity
HCT-116 [3] = experiment: Induction of apoptosis in human HCT-116 cells assessed as necrotic cells at 1.25 uM measured after 24 hrs by Annexin-V Alexa Fluor488/propidium iodide staining based flow cytometry (reference value: 4.6%); format: functional
HCT-116 [4] = experiment: Cell cycle arrest in human HCT-116 cells assessed as accumulation at G2/M phase at 1.25 uM measured after 24 hrs by propidium iodide staining based flow cytometry (reference value: 19.2%); format: functional
SF-539 = experiment: Growth inhibition of human SF-539 cells measured after 48 hrs by SRB assay; format: functional
HCT-116 [5] = experiment: Cell cycle arrest in human HCT-116 cells assessed as accumulation at sub-G1 phase at 2.5 uM measured after 24 hrs by propidium iodide staining based flow cytometry (reference value: 8.7%); format: functional
HCT-116 [6] = experiment: Cell cycle arrest in human HCT-116 cells assessed as accumulation at G2/M phase at 2.5 uM measured after 24 hrs by propidium iodide staining based flow cytometry (reference value: 19.2%); format: functional
NCI-H322M = experiment: Growth inhibition of human NCI-H322M cells measured after 48 hrs by SRB assay; format: functional
OVCAR-8 = experiment: Growth inhibition of human OVCAR-8 cells measured after 48 hrs by SRB assay; format: functional
HCT-116 [7] = experiment: Cell cycle arrest in human HCT-116 cells assessed as accumulation at G2/M phase at 5 uM measured after 24 hrs by propidium iodide staining based flow cytometry (reference value: 19.2%); format: functional
SF-268 = experiment: Growth inhibition of human SF-268 cells measured after 48 hrs by SRB assay; format: functional
CCRF-CEM = experiment: Growth inhibition of human CCRF-CEM cells measured after 48 hrs by SRB assay; format: functional
M14 = experiment: Growth inhibition of human M14 cells measured after 48 hrs by SRB assay; format: functional; conditions: for CC50: read-out: LC50 (the source's name)
HCT-116 [8] = experiment: Cell cycle arrest in human HCT-116 cells assessed as accumulation at sub-G1 phase at 5 uM measured after 24 hrs by propidium iodide staining based flow cytometry (reference value: 8.7%); format: functional
HCT-116 [9] = experiment: Cell cycle arrest in human HCT-116 cells assessed as accumulation at G1/G0 phase at 2.5 uM measured after 24 hrs by propidium iodide staining based flow cytometry (reference value: 65%); format: functional
HOP-62 = experiment: Growth inhibition of human HOP-62 cells measured after 48 hrs by SRB assay; format: functional
HCT-116 [10] = experiment: Cell cycle arrest in human HCT-116 cells assessed as accumulation at S phase at 1.25 uM measured after 24 hrs by propidium iodide staining based flow cytometry (reference value: 7.2%); format: functional
UACC-257 = experiment: Growth inhibition of human UACC-257 cells measured after 48 hrs by SRB assay; format: functional
[11] = Cytotoxicity against human L132 cells assessed as cell viability at 1 uM measured after 48 hrs by EZ-Cytox assay relative to control; format: cell-based; conditions: read-out: Activity
MDA-MB-231 = experiment: Growth inhibition of human MDA-MB-231 cells measured after 48 hrs by SRB assay; format: functional
HCT-116 [12] = experiment: Induction of apoptosis in human HCT-116 cells assessed as necrotic cells at 5 uM measured after 24 hrs by Annexin-V Alexa Fluor488/propidium iodide staining based flow cytometry (reference value: 4.6%); format: functional
SF-295 = experiment: Growth inhibition of human SF-295 cells measured after 48 hrs by SRB assay; format: functional
HOP-92 = experiment: Growth inhibition of human HOP-92 cells measured after 48 hrs by SRB assay; format: functional; conditions: for CC50: read-out: LC50 (the source's name)
COLO 205 = experiment: Growth inhibition of human COLO 205 cells measured after 48 hrs by SRB assay; format: functional
HCT-116 [13] = experiment: Cell cycle arrest in human HCT-116 cells assessed as accumulation at G2/M phase at 5 uM measured after 48 hrs by propidium iodide staining based flow cytometry (reference value: 20.4%); format: functional
[14] = biological target: Serine/threonine-protein kinase B-raf (Homo sapiens, UniProt P15056); experiment: Inhibition of human BRAF at 10 uM using MEK1 (K97R) as substrate in presence of [gamma-33P]ATP by scintillation counting method relative to control
HCT-116 [15] = experiment: Cell cycle arrest in human HCT-116 cells assessed as accumulation at sub-G1 phase at 2.5 uM measured after 48 hrs by propidium iodide staining based flow cytometry (reference value: 17%); format: functional
[16] = biological target: High affinity nerve growth factor receptor (Homo sapiens, UniProt P04629); experiment: Inhibition of human TRKA at 10 uM using poly[Glu:Tyr] (4:1) as substrate in presence of [gamma-33P]ATP by scintillation counting method relative to control
HCT-116 [17] = experiment: Cell cycle arrest in human HCT-116 cells assessed as accumulation at G2/M phase at 1.25 uM measured after 48 hrs by propidium iodide staining based flow cytometry (reference value: 20.4%); format: functional
[18] = test system: Serine/threonine-protein kinase B-raf (Homo sapiens), P15056 [V600E]; experiment: Inhibition of human BRAF V600E mutant at 10 uM using MEK1 (K97R) as substrate in presence of [gamma-33P]ATP by scintillation counting method relative to control
HCT-116 [19] = experiment: Cell cycle arrest in human HCT-116 cells assessed as accumulation at sub-G1 phase at 5 uM measured after 48 hrs by propidium iodide staining based flow cytometry (reference value: 17%); format: functional
HCT-116 [20] = experiment: Cell cycle arrest in human HCT-116 cells assessed as accumulation at S phase at 1.25 uM measured after 48 hrs by propidium iodide staining based flow cytometry (reference value: 10.4%); format: functional
[21] = biological target: Macrophage colony-stimulating factor 1 receptor (Homo sapiens) (UniProt P07333); experiment: Inhibition of human FMS at 10 uM using poly[Glu:Tyr] (4:1) as substrate in presence of [gamma-33P]ATP by scintillation counting method relative to control
[22] = biological target: Epithelial discoidin domain-containing receptor 1 (Homo sapiens, UniProt Q08345); experiment: Inhibition of human DDR1 at 10 uM using KKSRGDYMTMQIG as substrate in presence of [gamma-33P]ATP by scintillation counting method relative to control
[23] = biological target: Discoidin domain-containing receptor 2 (Homo sapiens) (UniProt Q16832); experiment: Inhibition of human DDR2 at 10 uM using KKSRGDYMTMQIG as substrate in presence of [gamma-33P]ATP by scintillation counting method relative to control
Discoidin domain-containing receptor 2 (Homo sapiens), sequence (Q16832 whole entry, the tested form may be a part): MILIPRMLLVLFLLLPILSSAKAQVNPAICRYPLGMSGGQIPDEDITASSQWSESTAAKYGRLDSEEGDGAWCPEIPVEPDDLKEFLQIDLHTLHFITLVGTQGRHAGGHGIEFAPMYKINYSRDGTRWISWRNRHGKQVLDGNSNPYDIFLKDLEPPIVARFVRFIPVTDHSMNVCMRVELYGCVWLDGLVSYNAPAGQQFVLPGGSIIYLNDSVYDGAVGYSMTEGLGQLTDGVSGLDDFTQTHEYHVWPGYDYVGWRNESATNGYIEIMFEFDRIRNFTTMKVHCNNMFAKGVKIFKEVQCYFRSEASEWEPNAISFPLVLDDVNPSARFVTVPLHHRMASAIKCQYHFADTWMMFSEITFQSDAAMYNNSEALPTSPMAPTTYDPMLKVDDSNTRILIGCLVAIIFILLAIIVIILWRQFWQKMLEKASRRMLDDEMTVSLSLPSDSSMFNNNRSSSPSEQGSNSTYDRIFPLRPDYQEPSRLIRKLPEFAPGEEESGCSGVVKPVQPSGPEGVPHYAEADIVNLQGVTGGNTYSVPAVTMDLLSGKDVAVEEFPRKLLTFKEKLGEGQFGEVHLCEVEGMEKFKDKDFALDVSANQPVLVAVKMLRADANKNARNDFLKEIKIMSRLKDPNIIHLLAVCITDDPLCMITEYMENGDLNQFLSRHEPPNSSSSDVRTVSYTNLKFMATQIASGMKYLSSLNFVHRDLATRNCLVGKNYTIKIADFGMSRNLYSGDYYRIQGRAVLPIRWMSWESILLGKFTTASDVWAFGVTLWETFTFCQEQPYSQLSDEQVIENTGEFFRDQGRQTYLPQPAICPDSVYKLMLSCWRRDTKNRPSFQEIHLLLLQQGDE

Serine/threonine-protein kinase B-raf (Homo sapiens, UniProt P15056, V600E), sequence (P15056 2-766 V600E limits assumed): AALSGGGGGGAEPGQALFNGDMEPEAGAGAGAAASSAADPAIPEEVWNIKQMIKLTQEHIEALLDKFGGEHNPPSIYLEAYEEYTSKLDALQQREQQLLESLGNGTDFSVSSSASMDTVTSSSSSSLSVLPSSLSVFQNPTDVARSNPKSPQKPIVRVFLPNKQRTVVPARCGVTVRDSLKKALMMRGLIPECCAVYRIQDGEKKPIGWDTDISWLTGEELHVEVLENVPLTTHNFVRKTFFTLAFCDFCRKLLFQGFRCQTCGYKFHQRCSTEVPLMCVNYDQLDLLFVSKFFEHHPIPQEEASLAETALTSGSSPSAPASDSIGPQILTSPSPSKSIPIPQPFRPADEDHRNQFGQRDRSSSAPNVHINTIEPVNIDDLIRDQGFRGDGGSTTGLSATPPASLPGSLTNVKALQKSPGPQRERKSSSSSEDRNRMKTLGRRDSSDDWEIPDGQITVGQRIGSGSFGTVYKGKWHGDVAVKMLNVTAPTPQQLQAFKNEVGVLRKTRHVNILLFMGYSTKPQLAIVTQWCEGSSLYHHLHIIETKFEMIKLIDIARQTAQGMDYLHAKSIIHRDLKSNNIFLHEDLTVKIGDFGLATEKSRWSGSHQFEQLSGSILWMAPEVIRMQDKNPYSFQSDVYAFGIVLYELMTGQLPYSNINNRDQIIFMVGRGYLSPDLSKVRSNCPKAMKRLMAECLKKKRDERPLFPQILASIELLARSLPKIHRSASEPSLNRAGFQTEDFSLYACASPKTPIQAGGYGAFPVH
Serine/threonine-protein kinase B-raf (Homo sapiens), P15056 [V600E], sequence (P15056 whole entry V600E): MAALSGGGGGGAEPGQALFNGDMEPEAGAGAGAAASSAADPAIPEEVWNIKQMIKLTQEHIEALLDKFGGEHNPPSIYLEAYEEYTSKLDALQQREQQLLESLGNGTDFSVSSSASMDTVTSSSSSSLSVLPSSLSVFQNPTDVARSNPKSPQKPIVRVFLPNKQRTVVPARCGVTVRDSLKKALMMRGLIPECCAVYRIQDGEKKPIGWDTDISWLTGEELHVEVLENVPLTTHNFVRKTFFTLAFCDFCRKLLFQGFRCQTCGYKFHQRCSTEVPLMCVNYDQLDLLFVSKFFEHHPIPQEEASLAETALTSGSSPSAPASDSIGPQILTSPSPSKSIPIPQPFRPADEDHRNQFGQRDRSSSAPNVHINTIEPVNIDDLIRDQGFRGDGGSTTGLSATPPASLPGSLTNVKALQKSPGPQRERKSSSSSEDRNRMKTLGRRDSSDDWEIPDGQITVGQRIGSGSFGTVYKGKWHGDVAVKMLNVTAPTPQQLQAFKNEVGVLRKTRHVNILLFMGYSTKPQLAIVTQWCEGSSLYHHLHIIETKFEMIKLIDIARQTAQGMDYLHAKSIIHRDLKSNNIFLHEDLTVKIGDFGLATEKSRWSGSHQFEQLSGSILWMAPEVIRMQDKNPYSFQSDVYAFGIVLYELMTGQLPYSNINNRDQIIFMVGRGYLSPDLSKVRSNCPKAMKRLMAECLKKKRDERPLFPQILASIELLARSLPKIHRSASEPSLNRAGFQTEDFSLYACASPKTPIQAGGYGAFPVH
Macrophage colony-stimulating factor 1 receptor (Homo sapiens), sequence (P07333 whole entry, the tested form may be a part): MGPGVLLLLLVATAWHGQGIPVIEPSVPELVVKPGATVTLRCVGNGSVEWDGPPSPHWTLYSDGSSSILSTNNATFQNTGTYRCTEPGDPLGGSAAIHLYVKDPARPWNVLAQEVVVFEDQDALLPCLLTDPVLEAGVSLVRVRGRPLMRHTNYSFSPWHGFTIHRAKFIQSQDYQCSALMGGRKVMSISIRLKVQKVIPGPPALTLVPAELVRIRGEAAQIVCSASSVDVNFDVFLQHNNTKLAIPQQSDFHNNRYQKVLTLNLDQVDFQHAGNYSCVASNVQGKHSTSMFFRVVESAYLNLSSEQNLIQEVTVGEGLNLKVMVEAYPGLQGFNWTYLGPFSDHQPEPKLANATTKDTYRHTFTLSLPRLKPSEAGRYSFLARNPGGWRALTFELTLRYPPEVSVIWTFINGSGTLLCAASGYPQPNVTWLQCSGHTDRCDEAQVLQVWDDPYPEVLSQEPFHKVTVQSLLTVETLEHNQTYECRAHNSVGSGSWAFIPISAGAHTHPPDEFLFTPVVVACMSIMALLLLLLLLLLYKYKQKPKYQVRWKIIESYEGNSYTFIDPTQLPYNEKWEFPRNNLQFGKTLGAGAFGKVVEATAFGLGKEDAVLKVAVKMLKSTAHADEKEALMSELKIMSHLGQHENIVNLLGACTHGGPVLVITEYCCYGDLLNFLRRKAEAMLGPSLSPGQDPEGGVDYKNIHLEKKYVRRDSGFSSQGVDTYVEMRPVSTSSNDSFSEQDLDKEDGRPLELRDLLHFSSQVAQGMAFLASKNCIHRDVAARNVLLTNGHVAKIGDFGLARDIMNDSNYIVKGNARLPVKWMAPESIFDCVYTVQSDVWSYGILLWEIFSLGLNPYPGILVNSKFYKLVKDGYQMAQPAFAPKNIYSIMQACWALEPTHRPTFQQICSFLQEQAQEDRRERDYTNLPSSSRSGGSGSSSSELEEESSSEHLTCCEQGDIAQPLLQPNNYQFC
Serine/threonine-protein kinase B-raf (Homo sapiens, UniProt P15056), sequence (P15056 whole entry): as the sequence (P15056 whole entry V600E) above, with E600V counted along it
Epithelial discoidin domain-containing receptor 1, sequence (Q08345 whole entry, the tested form may be a part): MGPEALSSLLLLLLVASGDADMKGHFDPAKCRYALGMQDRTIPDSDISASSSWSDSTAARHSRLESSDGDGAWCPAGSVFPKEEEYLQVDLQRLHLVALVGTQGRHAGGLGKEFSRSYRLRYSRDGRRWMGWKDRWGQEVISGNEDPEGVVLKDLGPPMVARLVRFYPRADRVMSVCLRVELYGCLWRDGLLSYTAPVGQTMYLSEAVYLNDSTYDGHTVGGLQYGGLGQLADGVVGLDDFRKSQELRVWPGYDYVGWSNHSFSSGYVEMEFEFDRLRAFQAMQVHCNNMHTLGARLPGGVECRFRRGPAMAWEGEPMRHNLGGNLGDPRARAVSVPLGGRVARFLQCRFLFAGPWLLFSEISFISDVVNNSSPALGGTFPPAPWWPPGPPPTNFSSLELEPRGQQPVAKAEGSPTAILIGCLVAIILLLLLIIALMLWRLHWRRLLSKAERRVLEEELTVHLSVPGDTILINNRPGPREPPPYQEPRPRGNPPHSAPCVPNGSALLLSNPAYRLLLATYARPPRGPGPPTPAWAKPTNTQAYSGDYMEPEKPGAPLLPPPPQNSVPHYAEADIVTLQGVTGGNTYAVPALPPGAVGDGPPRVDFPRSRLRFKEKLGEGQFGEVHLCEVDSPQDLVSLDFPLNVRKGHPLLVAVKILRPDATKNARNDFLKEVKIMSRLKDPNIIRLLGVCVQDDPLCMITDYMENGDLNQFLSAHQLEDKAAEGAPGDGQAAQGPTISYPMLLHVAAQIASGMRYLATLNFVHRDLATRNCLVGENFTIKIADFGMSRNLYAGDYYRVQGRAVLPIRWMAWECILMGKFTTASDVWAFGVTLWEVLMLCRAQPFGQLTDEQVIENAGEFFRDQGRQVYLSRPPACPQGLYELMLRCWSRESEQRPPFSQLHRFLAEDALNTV
High affinity nerve growth factor receptor, sequence (P04629 33-796 limits assumed): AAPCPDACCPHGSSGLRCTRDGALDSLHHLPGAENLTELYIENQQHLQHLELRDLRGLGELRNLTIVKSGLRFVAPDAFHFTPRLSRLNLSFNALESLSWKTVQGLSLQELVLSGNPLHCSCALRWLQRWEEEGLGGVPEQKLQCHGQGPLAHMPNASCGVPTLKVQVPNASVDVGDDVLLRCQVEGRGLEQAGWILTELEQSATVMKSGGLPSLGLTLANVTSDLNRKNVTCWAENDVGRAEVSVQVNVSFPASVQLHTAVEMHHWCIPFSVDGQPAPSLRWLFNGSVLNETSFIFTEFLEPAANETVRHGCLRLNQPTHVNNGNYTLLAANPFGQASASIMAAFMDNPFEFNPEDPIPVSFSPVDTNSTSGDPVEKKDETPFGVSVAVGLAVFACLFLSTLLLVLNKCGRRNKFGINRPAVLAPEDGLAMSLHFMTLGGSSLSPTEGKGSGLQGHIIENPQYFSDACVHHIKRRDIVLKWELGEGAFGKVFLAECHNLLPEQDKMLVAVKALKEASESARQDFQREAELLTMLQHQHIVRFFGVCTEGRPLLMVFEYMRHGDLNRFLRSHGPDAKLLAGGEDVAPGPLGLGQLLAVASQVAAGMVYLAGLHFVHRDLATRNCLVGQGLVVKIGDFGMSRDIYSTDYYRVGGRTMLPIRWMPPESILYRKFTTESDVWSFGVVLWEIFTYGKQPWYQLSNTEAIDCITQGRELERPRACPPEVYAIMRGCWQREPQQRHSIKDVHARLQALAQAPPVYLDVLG

| Compound | IC50 [1] [nM] | viability at 1.25 µM (HCT-116 [2]) [%] | Activity (HCT-116 [3]) [%] | GI50 (SF-539) [nM] | GI50 (NCI-H322M) [nM] | GI50 (OVCAR-8) [nM] | GI50 (SF-268) [nM] | GI50 (CCRF-CEM) [nM] | LC50 (CCRF-CEM) [nM] | TGI (CCRF-CEM) [nM] | GI50 (M14) [nM] | TGI (M14) [nM] | CC50 (M14) [nM] | GI50 (HOP-62) [nM] | GI50 (UACC-257) [nM] | viability at 48 h, 1 µM [11] [%] | GI50 (MDA-MB-231) [nM] | Activity (HCT-116 [12]) [%] | GI50 (SF-295) [nM] | LC50 (SF-295) [nM] | also measured |
| --- | --- | --- | --- | --- | --- | --- | --- | --- | --- | --- | --- | --- | --- | --- | --- | --- | --- | --- | --- | --- | --- |
| COc1cccc2nc(Nc3cccc(NC(=O)c4ccc(N5CCN(C)CC5)c(C(F)(F)F)c4)c3)ccc12 | 1460 | 81.7 | 11 | 895 | 1650 | 1690 | 1500 | 1400 | > 50000 | > 50000 | 899 | 1950 | 4210 | 856 | 1360 | 97 | 1550 | 4.8 | 967 | 3820 | Activity (HCT-116 [4]): 15.6%; Activity (HCT-116 [5]): 7.9%; Activity (HCT-116 [6]): 15.1%; Activity (HCT-116 [7]): 13.7%; Activity (HCT-116 [8]): 9.1%; Activity (HCT-116 [9]): 69.7%; Activity (HCT-116 [10]): 8.2%; TGI (SF-295): 1920 nM; GI50 (HOP-92): 854 nM; TGI (HOP-92): 4030 nM; CC50 (HOP-92): 18800 nM; GI50 (COLO 205): 909 nM |
| CCN1CCN(c2cc(C(=O)Nc3cccc(Nc4ccc5c(OC)cccc5n4)c3)cc(C(F)(F)F)c2)CC1 | 888 | 82.7 | 0.4 | 3280 | 1330 | 1970 | 1760 | 758 | 8040 | 2060 | 668 | 1650 | 5860 | 1020 | 1020 | 91.2 | 1800 | 0.6 | 803 | 11400 | Activity (HCT-116 [13]): 14.4%; inhibition [14]: 94.4%; Activity (HCT-116 [15]): 20.9%; inhibition [16]: 88%; Activity (HCT-116 [17]): 15.5%; inhibition [18]: 94.4%; Activity (HCT-116 [19]): 14.1%; Activity (HCT-116 [20]): 8.8%; inhibition [21]: 60.7%; inhibition [22]: 94.5%; TGI (SF-295): 2250 nM; GI50 (HOP-92): 1260 nM; TGI (HOP-92): 4660 nM; CC50 (HOP-92): 16600 nM; inhibition [23]: 67.5%; GI50 (COLO 205): 654 nM |
